Experimental findings from PubChem BioAssay (NCI) are described below.

Among the test systems are HL-60(TB) leukemia; NCI-H522 lung; HOP-92 NSCLC; PC-3 prostate; DU-145 prostate; T-47D breast; HCC-2998 colon; NCI-H23 lung; UACC-62 melanoma; SK-MEL-5 melanoma.
What all share (experiment): NCI-60 cell line screen, 48 h

Each structure is given as a SMILES string.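 Five compound concentrations were applied to cells in 96-well plates for 48 hours; endpoints were derived by simple linear interpolation of the resulting dose-response curve. The concentration for 50% growth inhibition is given as GI50. The concentration for full growth arrest is given as TGI.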

On to `CCOc1cc2c(Cl)ncnc2c(OCC)c1OCC`, for which the GI50 with HL-60(TB) leukemia was 2350 nM; with NCI-H522 lung, 9.67 µM; in the experiment with HOP-92 NSCLC, 3670 nM; in the experiment on PC-3 prostate, 3200 nM; in the experiment with DU-145 prostate, 1750 nM; in the experiment on T-47D breast, 6110 nM. Besides, the GI50 is 1880 nM in the experiment on HCC-2998 colon, 7710 nM with NCI-H23 lung, 6990 nM in the experiment on UACC-62 melanoma and 3800 nM with SK-MEL-5 melanoma. The TGI was 15.5 µM with HL-60(TB) leukemia; 23500 nM with NCI-H522 lung; 14200 nM in the experiment with HOP-92 NSCLC; 11.4 µM in the experiment with PC-3 prostate; 3.14 µM in the experiment on DU-145 prostate; 22.8 µM in the experiment on T-47D breast. Moreover, the TGI with HCC-2998 colon is 3.59 µM; in the experiment with NCI-H23 lung, 24.2 µM; in the experiment with UACC-62 melanoma, 20200 nM; in the experiment on SK-MEL-5 melanoma, 12.1 µM.
For the compound `CC[C@@]1(O)C(=O)OCc2c1cc1n(c2=O)Cc2c-1nc1cc3c(cc1c2CCl)OCO3`, the GI50 in the experiment with HL-60(TB) leukemia is below 10 nM; in the experiment on NCI-H522 lung it was below 0.01 µM; with HOP-92 NSCLC, below 10 nM; in the experiment on PC-3 prostate, 39.2 nM; with DU-145 prostate, below 10 nM; in the experiment with T-47D breast, below 10 nM. Further, the GI50 with HCC-2998 colon was 365 nM; in the experiment with NCI-H23 lung, below 10 nM; with UACC-62 melanoma it was below 10 nM; with SK-MEL-5 melanoma, below 10 nM. Further, the TGI in the experiment on NCI-H522 lung is 1360 nM; in the experiment on HOP-92 NSCLC, 466 nM; in the experiment on PC-3 prostate it was above 36.4 µM; in the experiment with T-47D breast, above 71.9 µM; in the experiment with HCC-2998 colon it was 8.58 µM; with NCI-H23 lung, below 0.0153 µM. Also, the TGI with UACC-62 melanoma stood at 205 nM; with SK-MEL-5 melanoma, 1.13 µM.
Regarding `CC(=O)OC[C@]1(C)C=C2C(=O)[C@](C)(O)C3(CC3)C(C)=C2[C@H]1O`, the GI50 in the experiment with HL-60(TB) leukemia is 86.1 nM; in the experiment with NCI-H522 lung, 0.0798 µM; with HOP-92 NSCLC it was 148 nM; with PC-3 prostate, 135 nM; with DU-145 prostate, 36 nM; with T-47D breast, 207 nM. Further, the GI50 in the experiment with HCC-2998 colon is 98.5 nM; in the experiment on NCI-H23 lung, 63.3 nM; in the experiment with UACC-62 melanoma, 89.4 nM; with SK-MEL-5 melanoma, 137 nM. Also, the TGI in the experiment on HL-60(TB) leukemia was 0.852 µM; in the experiment with NCI-H522 lung it was 390 nM; with HOP-92 NSCLC it was 623 nM; with PC-3 prostate it was 1.29 µM; with T-47D breast, 3.65 µM; with HCC-2998 colon, 0.353 µM. For the same compound, the TGI in the experiment with NCI-H23 lung amounted to 0.367 µM; with UACC-62 melanoma, 302 nM; in the experiment with SK-MEL-5 melanoma it was 0.3 µM.
Turning to `CC[CH2][Sn]([CH2]CC)([O]C(=O)c1cccnc1SC)[O][Sn]([CH2]CC)([CH2]CC)[O]C(=O)c1cccnc1SC`, the GI50 in the experiment with HL-60(TB) leukemia was 260 nM; with NCI-H522 lung, below 0.0196 µM; in the experiment with HOP-92 NSCLC, 342 nM; in the experiment on PC-3 prostate, 2300 nM; with DU-145 prostate, 2370 nM; with T-47D breast, 287 nM. In addition, the GI50 is 642 nM with HCC-2998 colon, 218 nM in the experiment with NCI-H23 lung, 343 nM with UACC-62 melanoma and 898 nM with SK-MEL-5 melanoma. Further, the TGI in the experiment with HL-60(TB) leukemia came to 4.24 µM; with NCI-H522 lung it was 78.4 nM; in the experiment on HOP-92 NSCLC it was 829 nM; with PC-3 prostate it was 6.48 µM; in the experiment on DU-145 prostate, 7.11 µM; with T-47D breast, 1.52 µM. The TGI in the experiment on HCC-2998 colon is 1.92 µM; in the experiment on NCI-H23 lung, 0.801 µM; in the experiment on UACC-62 melanoma, 809 nM; with SK-MEL-5 melanoma it was 3.26 µM.
Regarding `CC(C)c1nc(CN(C)C(=O)N[C@H](C(=O)N[C@@H](Cc2ccccc2)C[C@H](O)[C@H](Cc2ccccc2)NC(=O)OCc2cncs2)C(C)C)cs1`, the GI50 with HL-60(TB) leukemia was 12200 nM; in the experiment on NCI-H522 lung, 28.7 µM; with HOP-92 NSCLC, 20800 nM; in the experiment on PC-3 prostate it was 20800 nM; in the experiment on DU-145 prostate, 1420 nM; with T-47D breast it was 21700 nM. Besides, the GI50 in the experiment with HCC-2998 colon was 22200 nM; in the experiment on NCI-H23 lung, 42600 nM; in the experiment on UACC-62 melanoma it was 18500 nM; with SK-MEL-5 melanoma, 17100 nM. The TGI was 36.9 µM in the experiment on HL-60(TB) leukemia; above 81000 nM with NCI-H522 lung; 49500 nM with HOP-92 NSCLC; 79.2 µM in the experiment on PC-3 prostate; 73 µM in the experiment on T-47D breast; 45.2 µM in the experiment with HCC-2998 colon. The TGI was above 100 µM in the experiment on NCI-H23 lung, 34900 nM with UACC-62 melanoma and 33.5 µM in the experiment on SK-MEL-5 melanoma.
Regarding `CN1CCN(C(=O)OCc2nc3c(N4CCOCC4)nc(Cl)nc3n2C)CC1`, the GI50 in the experiment on HL-60(TB) leukemia was 650 nM; in the experiment on NCI-H522 lung, 1.1 µM; in the experiment with HOP-92 NSCLC it was 675 nM; with PC-3 prostate, 1330 nM; in the experiment on DU-145 prostate, 1390 nM; in the experiment on T-47D breast, 2010 nM. Moreover, the GI50 in the experiment with HCC-2998 colon was 1620 nM; in the experiment with NCI-H23 lung it was 1550 nM; in the experiment with UACC-62 melanoma, 1380 nM; with SK-MEL-5 melanoma, 1550 nM. Moreover, the TGI in the experiment on HL-60(TB) leukemia was 3.28 µM; in the experiment on NCI-H522 lung, 2740 nM; with HOP-92 NSCLC it was 2230 nM; in the experiment on PC-3 prostate, 2.92 µM; in the experiment with DU-145 prostate, 3.09 µM; with T-47D breast it was 4.99 µM. For the same compound, the TGI worked out at 3.15 µM in the experiment on HCC-2998 colon, 3.3 µM in the experiment with NCI-H23 lung, 2800 nM in the experiment on UACC-62 melanoma and 2.89 µM in the experiment with SK-MEL-5 melanoma.
In the case of `Cn1c2ccccc2c2c(-c3ccccc3)[n+]3ccncc3nc21`, the GI50 with HL-60(TB) leukemia is above 100000 nM; in the experiment with NCI-H522 lung it was 48 µM; in the experiment with HOP-92 NSCLC it was 96600 nM; in the experiment on PC-3 prostate it was above 100000 nM; in the experiment on DU-145 prostate, above 100000 nM; in the experiment on T-47D breast, 55300 nM. Moreover, the GI50 in the experiment with HCC-2998 colon is above 100000 nM; in the experiment with NCI-H23 lung, above 100000 nM; in the experiment on UACC-62 melanoma it was above 100000 nM; with SK-MEL-5 melanoma, 37200 nM. The TGI in the experiment on HL-60(TB) leukemia was above 100 µM; in the experiment on NCI-H522 lung, above 100000 nM; in the experiment with HOP-92 NSCLC, above 100000 nM; in the experiment on PC-3 prostate, above 100 µM; in the experiment with DU-145 prostate, above 100 µM; in the experiment with T-47D breast, above 100 µM. Further, the TGI in the experiment on HCC-2998 colon was above 100 µM; with NCI-H23 lung it was above 100 µM; in the experiment with UACC-62 melanoma, above 100000 nM; with SK-MEL-5 melanoma, above 100 µM.
